In PubChem BioAssay (NCI):
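Assay format: 96-well plates, 48-hour exposure. Definition used: TGI = concentration required for complete inhibition of growth.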

What was measured:
Assay in all cases: NCI anticancer screen, dose series, 48 h
OVCAR-3 ovarian = test system: OVCAR-3 ovarian
SK-MEL-2 melanoma = test system: SK-MEL-2 melanoma
OVCAR-4 ovarian = test system: OVCAR-4 ovarian
M14 melanoma = test system: M14 melanoma
NCI/ADR-RES ovarian = test system: NCI/ADR-RES ovarian
SK-MEL-28 melanoma = test system: SK-MEL-28 melanoma
T-47D breast = test system: T-47D breast
HT29 colon = test system: HT29 colon
K-562 leukemia = test system: K-562 leukemia
SF-295 CNS = test system: SF-295 CNS
NCI-H522 lung = test system: NCI-H522 lung
TK-10 renal = test system: TK-10 renal
HS 578T breast = test system: HS 578T breast
SK-OV-3 ovarian = test system: SK-OV-3 ovarian
786-0 renal = test system: 786-0 renal
LOX IMVI melanoma = test system: LOX IMVI melanoma
PC-3 prostate = test system: PC-3 prostate
RPMI-8226 leukemia = test system: RPMI-8226 leukemia
SW-620 colon = test system: SW-620 colon
OVCAR-8 ovarian = test system: OVCAR-8 ovarian
SF-268 CNS = test system: SF-268 CNS
COLO 205 colon = test system: COLO 205 colon
UO-31 renal = test system: UO-31 renal
IGROV1 ovarian = test system: IGROV1 ovarian
A498 renal = test system: A498 renal
MDA-MB-435 = test system: MDA-MB-435
HCT-15 colon = test system: HCT-15 colon
MALME-3M melanoma = test system: MALME-3M melanoma
HCC-2998 colon = test system: HCC-2998 colon
NCI-H226 lung = test system: NCI-H226 lung
SK-MEL-5 melanoma = test system: SK-MEL-5 melanoma
HCT-116 colon = test system: HCT-116 colon
SNB-19 CNS = test system: SNB-19 CNS
SF-539 CNS = test system: SF-539 CNS
BT-549 breast = test system: BT-549 breast
A549 NSCLC = test system: A549 NSCLC
ACHN renal = test system: ACHN renal
HOP-62 NSCLC = test system: HOP-62 NSCLC
UACC-62 melanoma = test system: UACC-62 melanoma
SR leukemia = test system: SR leukemia
HOP-92 NSCLC = test system: HOP-92 NSCLC
OVCAR-5 ovarian = test system: OVCAR-5 ovarian
DU-145 prostate = test system: DU-145 prostate
RXF 393 renal = test system: RXF 393 renal
MDA-MB-231 breast = test system: MDA-MB-231 breast
UACC-257 melanoma = test system: UACC-257 melanoma
U251 CNS = test system: U251 CNS
MDA-N = test system: MDA-N
NCI-H460 lung = test system: NCI-H460 lung
CAKI-1 renal = test system: CAKI-1 renal
SNB-75 CNS = test system: SNB-75 CNS
EKVX NSCLC = test system: EKVX NSCLC
SN12C renal = test system: SN12C renal
NCI-H23 lung = test system: NCI-H23 lung
MCF7 breast = test system: MCF7 breast
KM12 colon = test system: KM12 colon
MOLT-4 leukemia = test system: MOLT-4 leukemia
CCRF-CEM leukemia = test system: CCRF-CEM leukemia
HL-60(TB) leukemia = test system: HL-60(TB) leukemia

COc1cccc2[nH]c(-c3ccccn3)nc12
TGI (OVCAR-3 ovarian): > 100 µM
TGI (SK-MEL-2 melanoma): > 100 µM
TGI (OVCAR-4 ovarian): > 100 µM
TGI (M14 melanoma): > 100 µM
TGI (NCI/ADR-RES ovarian): 73.8 µM
TGI (SK-MEL-28 melanoma): > 100 µM
TGI (T-47D breast): > 100 µM
TGI (HT29 colon): > 100 µM
TGI (K-562 leukemia): > 100 µM
TGI (SF-295 CNS): > 100 µM
TGI (NCI-H522 lung): > 100 µM
TGI (TK-10 renal): > 100 µM
TGI (HS 578T breast): > 100 µM
TGI (SK-OV-3 ovarian): > 100 µM
TGI (786-0 renal): > 100 µM
TGI (LOX IMVI melanoma): > 100 µM
TGI (PC-3 prostate): > 100 µM
TGI (RPMI-8226 leukemia): > 100 µM
TGI (SW-620 colon): > 100 µM
TGI (OVCAR-8 ovarian): > 100 µM
TGI (SF-268 CNS): > 100 µM
TGI (COLO 205 colon): > 100 µM
TGI (UO-31 renal): > 100 µM
TGI (IGROV1 ovarian): > 100 µM
TGI (A498 renal): > 100 µM
TGI (MDA-MB-435): > 100 µM
TGI (HCT-15 colon): > 100 µM
TGI (MALME-3M melanoma): > 100 µM
TGI (HCC-2998 colon): > 100 µM
TGI (NCI-H226 lung): > 100 µM
TGI (SK-MEL-5 melanoma): > 100 µM
TGI (HCT-116 colon): > 100 µM
TGI (SNB-19 CNS): > 100 µM
TGI (SF-539 CNS): > 100 µM
TGI (BT-549 breast): > 100 µM
TGI (A549 NSCLC): > 100 µM
TGI (ACHN renal): > 100 µM
TGI (HOP-62 NSCLC): > 100 µM
TGI (UACC-62 melanoma): > 100 µM
TGI (SR leukemia): > 100 µM
TGI (HOP-92 NSCLC): > 100 µM
TGI (OVCAR-5 ovarian): > 100 µM
TGI (DU-145 prostate): > 100 µM
TGI (RXF 393 renal): > 100 µM
TGI (MDA-MB-231 breast): > 100 µM
TGI (UACC-257 melanoma): > 100 µM
TGI (U251 CNS): > 100 µM
TGI (MDA-N): > 100 µM
TGI (NCI-H460 lung): > 100 µM
TGI (CAKI-1 renal): > 100 µM
TGI (SNB-75 CNS): > 100 µM
TGI (EKVX NSCLC): > 100 µM
TGI (SN12C renal): > 100 µM
TGI (NCI-H23 lung): > 100 µM
TGI (MCF7 breast): > 100 µM
TGI (KM12 colon): > 100 µM

COc1ccc(C2SC(C)C(=O)N2c2nc(-c3nc(-c4ccc(Cl)cc4)cs3)cs2)cc1 (stereo unspecified)
TGI (OVCAR-3 ovarian): > 100 µM
TGI (OVCAR-4 ovarian): > 100 µM
TGI (M14 melanoma): > 100 µM
TGI (NCI/ADR-RES ovarian): > 100 µM
TGI (T-47D breast): > 100 µM
TGI (HT29 colon): > 100 µM
TGI (K-562 leukemia): > 100 µM
TGI (SF-295 CNS): > 100 µM
TGI (NCI-H522 lung): > 100 µM
TGI (TK-10 renal): > 100 µM
TGI (HS 578T breast): > 100 µM
TGI (SK-OV-3 ovarian): > 100 µM
TGI (786-0 renal): > 100 µM
TGI (LOX IMVI melanoma): > 100 µM
TGI (PC-3 prostate): > 100 µM
TGI (RPMI-8226 leukemia): > 100 µM
TGI (SW-620 colon): > 100 µM
TGI (OVCAR-8 ovarian): > 100 µM
TGI (SF-268 CNS): > 100 µM
TGI (COLO 205 colon): > 100 µM
TGI (UO-31 renal): > 100 µM
TGI (IGROV1 ovarian): > 100 µM
TGI (MDA-MB-435): > 100 µM
TGI (HCT-15 colon): > 100 µM
TGI (MALME-3M melanoma): > 100 µM
TGI (HCC-2998 colon): > 100 µM
TGI (NCI-H226 lung): > 100 µM
TGI (MOLT-4 leukemia): > 100 µM
TGI (SK-MEL-5 melanoma): > 100 µM
TGI (HCT-116 colon): > 100 µM
TGI (SNB-19 CNS): > 100 µM
TGI (SF-539 CNS): > 100 µM
TGI (BT-549 breast): > 100 µM
TGI (A549 NSCLC): > 100 µM
TGI (ACHN renal): > 100 µM
TGI (HOP-62 NSCLC): > 100 µM
TGI (UACC-62 melanoma): > 100 µM
TGI (SR leukemia): > 100 µM
TGI (HOP-92 NSCLC): > 100 µM
TGI (OVCAR-5 ovarian): > 100 µM
TGI (RXF 393 renal): > 100 µM
TGI (MDA-MB-231 breast): > 100 µM
TGI (UACC-257 melanoma): > 100 µM
TGI (CCRF-CEM leukemia): > 100 µM
TGI (U251 CNS): > 100 µM
TGI (MDA-N): > 100 µM
TGI (HL-60(TB) leukemia): > 100 µM
TGI (NCI-H460 lung): > 100 µM
TGI (CAKI-1 renal): > 100 µM
TGI (SNB-75 CNS): > 100 µM
TGI (EKVX NSCLC): > 100 µM
TGI (SN12C renal): > 100 µM
TGI (NCI-H23 lung): > 100 µM
TGI (MCF7 breast): > 100 µM
TGI (KM12 colon): > 100 µM
